Measurements reported in patent publication US20210267739A1, “DEVICES AND METHODS FOR CONTINUOUS DRUG DELIVERY VIA THE MOUTH” (SynAgile Corporation, priority 2013, published 2021).

Legend:
[1] = cited from earlier work; for Approximate Pressure, bars at 37° C.: vapor pressure of propellant liquid at 37° C.
[2] = Vapor pressures of propellant liquids; assay type: physicochemical
Experimental: For propellant-driven pumps, it is preferred to use propellants whose pressure increases by less than about 80%, 60%, or 40% when the temperature is raised from 37° C. to 55° C. As examples, the pressure of Dupont Dymel HFC-134a (1,1,1,2-tetrafluoroethane) increases from 938 kPa (absolute) at 37° C. to 1,493 kPa (absolute) at 55° C., an increase of 59%. The pressure of Dupont Dymel HFC-227ea/P ([…]) increases from about 700 kPa (absolute) at 37° C. to 1,000 kPa (absolute) at 55° C., an increase of 42%. In order to minimize the effect of temperature fluctuations on the propellants, a number of methods can be employed. In one embodiment, an insulating material can be used to decrease the sensitivity to changes in ambient temperature by insulating the propellant and drug reservoirs with materials of low thermal conductivity. Materials such as closed cell neoprene foams, can be used in this embodiment. In another embodiment, a material with very low thermal conductivity can be utilized, such as a ceramic.

mouth of healthy subject [3] = assay type: in vivo
Experimental: The infusion was made into the cheek pouch of the lower left jaw, between the gum and the cheek. The pump infused the drug for 8 hours over a total period of 9 hours and 10 minutes.
The solution was infused using a Cane CronoPAR pump. […] The drug infusion was continuous, but was stopped during lunch for a period of 70 minutes. According to the manual, the Cane CronoPAR pump infuses the drug in boluses of 22 μL. […] Lodosyn tablets (25 mg carbidopa) were taken orally twice during the infusion period, for a total dose of 50 mg carbidopa.
The solution was infused in the cheek pouch of the lower right jaw, i.e., between the gum and the cheek.
(§1) The solution was infused using a Cane CronoPAR pump.
The infusion was made into the cheek pouch of the lower right jaw, between the gum and the cheek. The pump infused the drug for 5 hours and 45 minutes over a total period of 7 hours and 30 minutes.
The solution was infused using a Cane CronoPAR pump. […] Pump delivery was stopped during lunch for 1 hour 45 minutes for lunch. According to the manual, the Cane CronoPAR pump infuses the drug in boluses of 22 μL.
The same healthy subject infused into their mouth about 0.69 g LD and 0.07 g carbidopa, in 3.0 mL of 1.2M LD aqueous suspension, of unknown pH. The infusion was made into the cheek pouch of the lower right jaw, between the gum and the cheek. The pump infused the drug for 8 hours and 10 minutes over a total period of 9 hours and 5 minutes.
as §1

mouth of healthy subject [4] = test: Salivation and swallowing during intra-oral infusion; assay type: in vivo, human
Experimental: The subject recorded the number of times that they swallowed over two five minute periods. They swallowed 10 and 11 times during these two five minute periods, equal to an average rate of 2.1 swallows per minute. By contrast, in two other 5 minute periods when the subject was not infusing the drug, they swallowed 6 times and 5 times, equal to an average rate of 1.1 swallows per minute.
During two five-minute periods the subject recorded the number of times that they swallowed during the infusion. They swallowed 6 times during each of these two five minute periods, equal to an average rate of 1.2 swallows per minute. This is consistent with the previously measured rate of 1.1 swallows per minute observed when not infusing a drug and is half the 2.1 swallows per minute rate the subject observed when infusing LDEE.

[5] = in vivo; cited from earlier work

Row | SMILES | Approximate Pressure, bars at 37° C. [1] | other results
1 | CCC(C)C [isopentane] | 1.4 bars | 
2 | CC(C)F [2-fluoropropane] | 5 bars | 
3 | FCCF [1,2-difluoroethane] | 1.9 bars | 
4 | CC(F)F [1,1-difluoroethane] | 8.4 bars | 
5 | CCC [propane] | 12.8 bars | 
6 | FC(C(F)(F)F)C(F)(F)F [1,1,1,2,3,3,3 heptafluoropropane] | 4.6 bars | increase of pressure from 37° C. to 55° C. [2]: 42%; pressure (absolute) at 37° C. [1]: about 700 kPa; pressure (absolute) at 55° C. [1]: 1,000 kPa
7 | CCOCC [diethyl ether] | 1.1 bars | 
8 | CCOC [methyl ethyl ether] | 3 bars | 
9 | CC=CC [Example 2-butene, 2-butene] | 3.2 bars | 
10 | CCCF [1-fluoropropane] | 4.1 bars | 
11 | CCCC [butane] | 3.5 bars | 
12 | FCC(F)(F)F [1,1,1,2 tetrafluoroethane] | 9.3 bars | increase of pressure from 37° C. to 55° C. [2]: 59%; pressure (absolute) at 37° C. [1]: 938 kPa; pressure (absolute) at 55° C. [1]: 1,493 kPa
13 | CCCCF [1-fluorobutane] | 1.3 bars | 
14 | FC(F)(F)CC(F)(F)F [1,1,1,3,3,3 hexafluoropropane] | 4.0 bars | 
15 | CC(C)(C)C [neopentane] | 2.4 bars | 
16 | C=CC [propene] | 15.5 bars | 
17 | CCOC(=O)[C@@H](N)Cc1ccc(O)c(O)c1 [LDEE, levodopa ethyl ester] |  | condition of the mouth post-infusion (mouth of healthy subject [3]; 24 hours post-infusion): dead, grey, peeling skin; tooth hypersensitivity (mouth of healthy subject [3]; during or after infusion, healthy subject): hypersensitivity at the gum line of one tooth; time post-infusion at which the tissue appears normal (mouth of healthy subject [3]; healthy subject): 4 days; irritation or discomfort in the mouth during the infusion (mouth of healthy subject [3]; infusion into cheek pouch, healthy subject): no irritation or discomfort in the mouth; stimulation of salivation (mouth of healthy subject [4]; during infusion): stimulated in the subject salivation; average rate of swallowing during infusion (mouth of healthy subject [4]; two five minute periods): 2.1 swallows per minute
18 | FC1(F)C(F)(F)C(F)(F)C1(F)F [octafluorocyclobutane] | 4.3 bars | 
19 | Cc1ccc(C(=O)c2cc(O)c(O)c([N+](=O)[O-])c2)cc1 [Tolcapone] |  | plasma half-life [5]: 2 to 3 h
20 | CCC(C)F (stereo not drawn) [2-fluorobutane] | 1.6 bars | 
21 | C=CCC [Example 1-butene, 1-butene] | 4.2 bars | 
22 | CCN(CC)C(=O)/C(C#N)=C/c1cc(O)c(O)c([N+](=O)[O-])c1 [Entacapone] |  | plasma half-life [5]: 0.4 to 0.7 h
